US11217811B2, “Unique redox-active phenothiazine combinations with depressed melting points for increased solubility and method of use in energy storage and in redox flow batteries” (University of Kentucky Research Foundation, priority 2019, dated 2022)
≈ marks a conversion by molar mass, not a printed value. Like-named read-outs stand apart in the source and are kept apart here.

Experiment: Solubility in acetonitrile, determined by 1H NMR spectroscopy
Assay type: physicochemical
Experimental: The solubility of each of such mixtures was determined according to the following procedure: acetonitrile was added to the vials containing the samples in aliquots ranging from 0.1 to 1 mL; after every aliquot of solvent was added, each sample was shaken, sonicated, and lightly warmed up with a heat gun (about 40° C.); if the suspended solid persisted, another aliquot was added, and the process repeated until a clear solution was obtained. The warm solution was left to cool down to room temperature: if any solid formed, more solvent was added, and the process repeated until the solution remained clear indefinitely. The solubility was then determined using ^1H NMR spectroscopy. […] The results are summarized in Table 1: in both the cases examined, the solubility of EPT increased substantially when mixed with MEPT.

[1] = organic solvent or mixture, thermodynamic from solid, pure compound in acetonitrile, room temperature, read-out: Solubility of the single component
[2] = pure compound in acetonitrile, room temperature
[3] = acetonitrile, RPT-TFSI and the corresponding binary blend

SMILES	solubility [1] [mM]	solubility [3] [mM]	also measured
CCN1c2ccccc2Sc2ccccc21 [EPT, N-ethylphenothiazine]	110 (≈ 25 mg/mL)		
CCN1c2ccccc2[S+]c2ccccc21.F[B-](F)(F)F [EPT-BF4, EPT-tetrafluoroborate]			Solubility of the single component [2]: 330 mM
CCN1c2ccccc2[S+]c2ccccc21.O=S(=O)([N-]S(=O)(=O)C(F)(F)F)C(F)(F)F [EPT-TFSI, EPT-bis(trifluoromethanesulfonyl)imide]		370	
COCCN1c2ccccc2Sc2ccccc21 [MEPT, N-(2-methoxyethyl)phenothiazine]			Miscibility in acetonitrile (acetonitrile): miscible in acetonitrile in all ratios
COCCN1c2ccccc2[S+]c2ccccc21.F[B-](F)(F)F [MEPT-BF4, MEPT-tetrafluoroborate]			Solubility of the single component [2]: 310 mM
CN1c2ccccc2Sc2ccccc21 [MPT, N-methylphenothiazine]	240 (≈ 51.2 mg/mL)		
CN1c2ccccc2[S+]c2ccccc21.O=S(=O)([N-]S(=O)(=O)C(F)(F)F)C(F)(F)F [MPT-TFSI, MPT-bis(trifluoromethanesulfonyl)imide]		1500	
c1ccc(N2c3ccccc3Sc3ccccc32)cc1 [PhPT, N-phenylphenothiazine]	140 (≈ 38.6 mg/mL)		
O=S(=O)([N-]S(=O)(=O)C(F)(F)F)C(F)(F)F.c1ccc(N2c3ccccc3[S+]c3ccccc32)cc1 [PhPT-TFSI, PhPT-bis(trifluoromethanesulfonyl)imide]		1640	
